Experimental findings from patent US6969590B2, “Use of a polypeptide for treatment of pruritus in animals” (Zengen, Inc., priority 2001, dated 2005) are described below.

The subject of this assay is cAMP. The assay can be described thus: cAMP accumulation in N9 cells. Format: cell-based, murine. Conditions: resting cells and cells incubated with LPS+IFN-γ. As to the method:
cAMP accumulation in N9 cells was measured as previously described. Briefly, cells in six-well plates were co-incubated at 37° C. with (1) medium; (2) forskolin (100 μM); (3) LPS (10 ng/mL)+IFN-γ (1 U/mL); (4) α-MSH (1-13) or α-MSH (11-13) (1, 10, 50 μM); (5) LPS+IFN-γ and either α-MSN (1-13) or α-MSH (11-13) (10 μM). Reactions were stopped after 3 min by aspirating supernatants, immediately adding 1 mL ethanol at −20° C. and freezing. cAMP content in the ethanol-soluble fraction was measured using an enzyme immunoassay kit (Amersham).

On to SYSMEHFRWGKPV [α-MSH (1-13)], for which the cAMP accumulation entry is recorded as “increased cAMP accumlation”.
